Columns and labels:
[1] = target: T1, CYP1A2 (Homo sapiens, UniProt P05177); assay: CYP inhibition assay, human liver microsomes, substrate tacrine; assay type: in vitro ADME; settings: human liver microsomes, 10 min incubation, LC-MS/MS; read-out: CYP Inhibition Activity (IC50/nM) CYP1A2
T1 construct: from tissue; host or cells: human liver microsomes
T1 sequence (P05177 1-516): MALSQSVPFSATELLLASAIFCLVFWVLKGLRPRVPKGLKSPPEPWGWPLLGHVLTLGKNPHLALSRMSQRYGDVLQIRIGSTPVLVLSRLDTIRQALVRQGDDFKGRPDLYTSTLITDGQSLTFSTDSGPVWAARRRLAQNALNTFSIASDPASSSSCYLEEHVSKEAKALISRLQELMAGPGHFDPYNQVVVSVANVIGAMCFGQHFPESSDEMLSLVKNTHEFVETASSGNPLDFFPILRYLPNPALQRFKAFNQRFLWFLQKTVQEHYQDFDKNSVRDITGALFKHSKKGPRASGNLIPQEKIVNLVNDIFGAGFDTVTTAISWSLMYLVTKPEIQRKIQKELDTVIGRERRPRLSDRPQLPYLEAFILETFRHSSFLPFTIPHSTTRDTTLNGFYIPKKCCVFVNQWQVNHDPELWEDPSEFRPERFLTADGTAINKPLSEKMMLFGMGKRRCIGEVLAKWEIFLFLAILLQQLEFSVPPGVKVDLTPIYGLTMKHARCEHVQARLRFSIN
Procedure: (§1) 2 μL of test compound/Positive Inhibitor working solutions is then added to the reaction plate (2 μL/well). For control, 2 μL of Acetonitrile (ACN) containing DMSO (without inhibitor) is added to the reaction plate. 20 μL of substrate pool is added to all the wells of the reaction plate. The samples are mixed in a vortexer and pre-incubated at 37° C. for 20 min. The NADPH solution is pre-warmed at 37° C. for 5 min. 20 μL of pre-warmed NADPH solution is added to the reaction plate and then incubated at 37° C. for 10 min. The reaction is terminated by adding cold ACN (200 μL/well) to the reaction mixture and centrifuging at 4,000 rpm for 20 minutes. After centrifugation, supernatant is separated and analyzed by LC-MS/MS.
(§2) % inhibition and IC50 are calculated using Graphpad Prism software.

[2] = target: SRPK1 (Homo sapiens, UniProt Q96SB4); assay: In vitro SRPK1 assay (Kinase-Glo); assay type: biochemical
[3] = target: T2, CYP2D6 (Homo sapiens, UniProt P10635); assay: biochemical; assay type: in vitro ADME
T2 construct: from tissue; host or cells: human liver microsomes
Procedure: 158 μL of Human Liver Microsomes working stock solution is added to a reaction plate (0.253 mg/mL, 158 μL/well). 2 μL of test compound/Positive Inhibitor working solutions is then added to the reaction plate (2 μL/well). For control, 2 μL of Acetonitrile (ACN) containing DMSO (without inhibitor) is added to the reaction plate. 20 μL of substrate pool is added to all the wells of the reaction plate. The samples are mixed in a vortexer and pre-incubated at 37° C. for 20 min. The NADPH solution is pre-warmed at 37° C. for 5 min. 20 μL of pre-warmed NADPH solution is added to the reaction plate and then incubated at 37° C. for 10 min. The reaction is terminated by adding cold ACN (200 μL/well) to the reaction mixture and centrifuging at 4,000 rpm for 20 minutes. After centrifugation, supernatant is separated and analyzed by LC-MS/MS.
as §2

[4] = target: T3, CYP3A4 (Homo sapiens, UniProt P08684); assay: CYP inhibition assay, human liver microsomes, substrate midazolam; assay type: in vitro ADME; settings: human liver microsomes, 10 min incubation, LC-MS/MS; read-out: CYP Inhibition Activity (IC50/nM) CYP3A4
T3 construct: from tissue; host or cells: human liver microsomes
Procedure: as §1, §2

[5] = target: T4, CYP2C19 (Homo sapiens, UniProt P33261); assay: CYP inhibition assay, human liver microsomes, substrate S-mephenytoin; assay type: in vitro ADME; settings: human liver microsomes, 10 min incubation, LC-MS/MS; read-out: CYP Inhibition Activity (IC50/nM) CYP2C19
T4 construct: from tissue; host or cells: human liver microsomes
Procedure: as §1, §2

[6] = target: T5, CYP2C9 (Homo sapiens, UniProt P11712); assay: CYP inhibition assay, human liver microsomes, substrate diclofenac; assay type: in vitro ADME; settings: human liver microsomes, 10 min incubation, LC-MS/MS; read-out: CYP Inhibition Activity (IC50/nM) CYP2C9
T5 construct: from tissue; host or cells: human liver microsomes
Procedure: as §1, §2

T2 sequence (P10635 whole entry): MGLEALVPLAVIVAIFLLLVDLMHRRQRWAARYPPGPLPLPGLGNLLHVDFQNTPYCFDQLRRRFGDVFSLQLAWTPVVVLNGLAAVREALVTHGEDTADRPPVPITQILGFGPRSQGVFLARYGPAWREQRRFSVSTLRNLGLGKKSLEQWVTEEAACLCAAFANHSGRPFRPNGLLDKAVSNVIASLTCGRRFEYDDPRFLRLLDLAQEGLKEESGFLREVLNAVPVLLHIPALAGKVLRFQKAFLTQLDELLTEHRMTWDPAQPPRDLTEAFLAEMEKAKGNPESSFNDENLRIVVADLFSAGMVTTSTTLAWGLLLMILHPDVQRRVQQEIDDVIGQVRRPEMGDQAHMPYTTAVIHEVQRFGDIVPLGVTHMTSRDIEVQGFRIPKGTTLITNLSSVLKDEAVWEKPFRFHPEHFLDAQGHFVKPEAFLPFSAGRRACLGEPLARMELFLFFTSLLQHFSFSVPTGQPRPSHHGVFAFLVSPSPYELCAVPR
T3 sequence (P08684 whole entry): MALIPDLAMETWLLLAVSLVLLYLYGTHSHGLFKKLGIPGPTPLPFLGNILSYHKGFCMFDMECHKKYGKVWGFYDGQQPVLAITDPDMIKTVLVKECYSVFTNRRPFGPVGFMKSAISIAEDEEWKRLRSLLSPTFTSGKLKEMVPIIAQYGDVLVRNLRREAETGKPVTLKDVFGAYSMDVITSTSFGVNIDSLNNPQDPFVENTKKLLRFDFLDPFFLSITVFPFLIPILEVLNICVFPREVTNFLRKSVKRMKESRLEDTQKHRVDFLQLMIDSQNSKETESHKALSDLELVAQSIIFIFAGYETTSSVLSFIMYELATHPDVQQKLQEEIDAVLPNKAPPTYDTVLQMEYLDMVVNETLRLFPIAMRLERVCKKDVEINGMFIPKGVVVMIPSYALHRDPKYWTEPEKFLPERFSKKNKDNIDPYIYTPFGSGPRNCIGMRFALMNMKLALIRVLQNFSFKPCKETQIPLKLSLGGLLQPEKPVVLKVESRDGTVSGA
T4 sequence (P33261 whole entry): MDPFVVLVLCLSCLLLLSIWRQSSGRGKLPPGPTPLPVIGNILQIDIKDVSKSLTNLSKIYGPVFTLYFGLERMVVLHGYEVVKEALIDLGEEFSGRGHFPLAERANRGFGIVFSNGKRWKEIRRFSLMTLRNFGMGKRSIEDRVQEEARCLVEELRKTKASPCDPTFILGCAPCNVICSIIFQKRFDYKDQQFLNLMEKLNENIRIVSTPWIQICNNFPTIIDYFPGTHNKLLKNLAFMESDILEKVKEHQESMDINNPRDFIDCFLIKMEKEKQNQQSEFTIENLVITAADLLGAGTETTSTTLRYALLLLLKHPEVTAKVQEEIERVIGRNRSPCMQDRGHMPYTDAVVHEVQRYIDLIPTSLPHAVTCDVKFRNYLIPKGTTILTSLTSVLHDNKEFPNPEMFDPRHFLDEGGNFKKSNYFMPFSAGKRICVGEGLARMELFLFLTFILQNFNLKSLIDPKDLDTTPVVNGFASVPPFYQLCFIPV
SRPK1, sequence (Q96SB4 whole entry, species assumed): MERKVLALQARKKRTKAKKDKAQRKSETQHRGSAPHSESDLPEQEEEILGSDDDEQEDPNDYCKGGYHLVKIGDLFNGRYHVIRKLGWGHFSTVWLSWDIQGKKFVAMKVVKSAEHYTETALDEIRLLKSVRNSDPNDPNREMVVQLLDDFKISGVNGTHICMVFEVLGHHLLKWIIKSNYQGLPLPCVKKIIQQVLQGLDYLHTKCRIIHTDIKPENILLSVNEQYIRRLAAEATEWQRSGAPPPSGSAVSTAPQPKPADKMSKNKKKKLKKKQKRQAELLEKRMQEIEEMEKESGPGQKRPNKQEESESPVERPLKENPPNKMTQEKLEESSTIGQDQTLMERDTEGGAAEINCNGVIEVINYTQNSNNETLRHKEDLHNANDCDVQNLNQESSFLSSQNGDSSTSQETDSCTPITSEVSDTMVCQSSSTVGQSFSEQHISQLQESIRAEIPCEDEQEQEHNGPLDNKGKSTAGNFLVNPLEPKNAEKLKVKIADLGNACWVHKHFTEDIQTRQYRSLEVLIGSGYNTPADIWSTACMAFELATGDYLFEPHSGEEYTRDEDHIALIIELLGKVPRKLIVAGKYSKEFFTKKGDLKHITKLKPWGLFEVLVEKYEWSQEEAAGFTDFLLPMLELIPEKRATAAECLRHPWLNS
T5 sequence (P11712 whole entry): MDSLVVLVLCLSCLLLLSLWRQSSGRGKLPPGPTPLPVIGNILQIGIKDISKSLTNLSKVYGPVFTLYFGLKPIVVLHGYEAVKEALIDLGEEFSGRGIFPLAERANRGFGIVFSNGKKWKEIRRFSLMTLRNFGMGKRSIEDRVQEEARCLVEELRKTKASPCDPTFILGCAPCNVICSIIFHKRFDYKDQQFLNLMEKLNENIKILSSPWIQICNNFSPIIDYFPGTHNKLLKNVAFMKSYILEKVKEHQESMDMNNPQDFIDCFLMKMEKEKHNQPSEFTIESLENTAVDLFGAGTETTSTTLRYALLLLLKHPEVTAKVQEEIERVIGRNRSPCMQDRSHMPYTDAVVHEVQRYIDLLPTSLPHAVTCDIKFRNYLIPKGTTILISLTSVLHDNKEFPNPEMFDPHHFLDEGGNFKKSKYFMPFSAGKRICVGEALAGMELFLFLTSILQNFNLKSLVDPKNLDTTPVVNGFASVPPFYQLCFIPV

CC1(CO)CCN(c2ccc(Cl)cc2NC(=O)c2ccc(C3CCOCC3)o2)CC1 [Example 68, N-(5-chloro-2-(4-(hydroxymethyl)-4-methyl-piperidin-1-yl)phenyl)-5-(tetrahydro-2H-pyran-4-yl)furan-2-carboxamide]
IC50 [1]: > 30000 nM | IC50 [2]: 1.2 nM | IC50 [3]: 16.1 µM | IC50 [4]: 10900 nM | IC50 [5]: 11400 nM | IC50 [6]: 2800 nM

CC1(O)CCN(c2ccc(C(F)F)cc2NC(=O)c2ccc(-c3ccncc3)o2)CC1 [Example 7, N-(5-(difluoromethyl)-2-(4-hydroxy-4-methyl-piperidin-1-yl)phenyl)-5-(pyridin-4-yl)furan-2-carboxamide]
IC50 [1]: 4000 nM | IC50 [2]: 1.7 nM | IC50 [3]: 2.3 µM | IC50 [4]: 1200 nM | IC50 [5]: 1400 nM | IC50 [6]: 600 nM

CNC(=O)C1(C)CCN(c2ccc(C(F)(F)F)cc2NC(=O)c2ccc(-c3ccncc3)o2)CC1 [Example 73, N,4-dimethyl-1-(2-(5-(pyridin-4-yl)furan-2-carboxamido)-4-(trifluoromethyl)phenyl)-piperidine-4-carboxamide]
IC50 [1]: > 30000 nM | IC50 [2]: 5.6 nM | IC50 [3]: 1.61 µM | IC50 [4]: 470 nM | IC50 [5]: 1870 nM | IC50 [6]: 690 nM

CC1(O)CCN(c2ccc(C(F)(F)F)cc2NC(=O)c2ccc(-c3ccncc3)o2)CC1 [Example 4, N-(2-(4-hydroxy-4-methylpiperidin-1-yl)-5-(trifluoromethyl)phenyl)-5-(pyridin-4-yl)furan-2-carboxamide]
IC50 [1]: 23200 nM | IC50 [2]: 5 nM | IC50 [3]: 3.45 µM | IC50 [4]: 4900 nM | IC50 [5]: 2480 nM | IC50 [6]: 2480 nM

CN(C)CC1(C)CCN(c2ccc(C(F)(F)F)cc2NC(=O)c2ccc(C3CCOCC3)o2)CC1 [Example 83, N-(2-(4-((dimethylamino)methyl)-4-methyl-piperidin-1-yl)-5-(trifluoromethyl)phenyl)-5-(tetrahydro-2H-pyran-4-yl)furan-2-carboxamide]
IC50 [1]: > 30000 nM | IC50 [2]: 3.2 nM | IC50 [3]: 3.2 µM | IC50 [4]: 21000 nM | IC50 [5]: > 30000 nM | IC50 [6]: 24300 nM

CC1(CN2CCOCC2)CCN(c2ccc(C(F)(F)F)cc2NC(=O)c2ccc(C3CCOCC3)o2)CC1 [Example 97, N-(2-(4-methyl-4-(morpholinomethyl)piperidin-1-yl)-5-(trifluoromethyl)phenyl)-5-(tetrahydro-2H-pyran-4-yl)furan-2-carboxamide]
IC50 [1]: > 30000 nM | IC50 [2]: 6 nM | IC50 [3]: 8.1 µM | IC50 [4]: 9400 nM | IC50 [5]: 2700 nM | IC50 [6]: 200 nM

O=C(Nc1cc(Cl)ccc1N1CCCC(O)CC1)c1ccc(C2CCOCC2)o1 (racemic) [Example 48, N-(5-chloro-2-(4-hydroxyazepan-1-yl)phenyl)-5-(tetrahydro-2H-pyran-4-yl)furan-2-carboxamide]
IC50 [1]: 16800 nM | IC50 [2]: 15 nM | IC50 [3]: 15.7 µM | IC50 [4]: 21100 nM | IC50 [5]: 6000 nM | IC50 [6]: 10300 nM

CC1(O)CCN(c2ccc(OC(F)(F)F)cc2NC(=O)c2ccc(-c3ccncc3)o2)CC1 [Example 10, N-(2-(4-hydroxy-4-methylpiperidin-1-yl)-5-(trifluoromethoxy)phenyl)-5-(pyridin-4-yl)furan-2-carboxamide]
IC50 [1]: 14400 nM | IC50 [2]: 6 nM | IC50 [3]: 5.42 µM | IC50 [4]: 3780 nM | IC50 [5]: 2670 nM | IC50 [6]: 1770 nM

CC1CCN(c2ccc(C(F)(F)F)cc2NC(=O)c2ccc(C3CCOCC3)o2)CC1 [Example 35, N-(2-(4-methylpiperidin-1-yl)-5-(trifluoromethyl)-phenyl)-5-(tetrahydro-2H-pyran-4-yl)furan-2-carboxamide]
IC50 [1]: 4700 nM | IC50 [2]: 56.1 nM | IC50 [3]: > 30 µM | IC50 [4]: > 30000 nM | IC50 [5]: 27800 nM | IC50 [6]: > 30000 nM

CC1(C(=O)N2CCCC2)CCN(c2ccc(C(F)(F)F)cc2NC(=O)c2ccc(C3CCOCC3)o2)CC1 [Example 88, N-(2-(4-methyl-4-(pyrrolidine-1-carbonyl)-piperidin-1-yl)-5-(trifluoromethyl)-phenyl)-5-(tetrahydro-2H-pyran-4-yl)furan-2-carboxamide]
IC50 [1]: > 30000 nM | IC50 [2]: 11 nM | IC50 [3]: 10.3 µM | IC50 [4]: 1000 nM | IC50 [5]: 4600 nM | IC50 [6]: 300 nM

CC1(O)CCN(c2ccc(Cl)cc2NC(=O)c2ccc(C3CCOCC3)o2)C1 (racemic) [Example 60, N-(5-chloro-2-(3-hydroxy-3-methylpyrrolidin-1-yl)phenyl)-5-(tetrahydro-2H-pyran-4-yl)furan-2-carboxamide]
IC50 [1]: > 30000 nM | IC50 [2]: 71 nM | IC50 [3]: > 30 µM | IC50 [4]: > 30000 nM | IC50 [5]: 22600 nM | IC50 [6]: > 30000 nM

Cc1ccc(N2CCC(C)(CO)CC2)c(NC(=O)c2ccc(C3CCOCC3)o2)c1 [Example 66, N-(2-(4-(hydroxymethyl)-4-methylpiperidin-1-yl)-5-methylphenyl)-5-(tetrahydro-2H-pyran-4-yl)furan-2-carboxamide]
IC50 [1]: > 30000 nM | IC50 [2]: 10 nM | IC50 [3]: > 30 µM | IC50 [4]: > 30000 nM | IC50 [5]: 11400 nM | IC50 [6]: 2000 nM

COc1ccc(N2CCC(C)(O)CC2)c(NC(=O)c2ccc(C3CCOCC3)o2)c1 [Example 15, N-(2-(4-hydroxy-4-methylpiperidin-1-yl)-5-methoxyphenyl)-5-(tetrahydro-2H-pyran-4-yl)furan-2-carboxamide]
IC50 [1]: 6270 nM | IC50 [2]: 5.2 nM | IC50 [3]: 19.1 µM | IC50 [4]: 10600 nM | IC50 [5]: 7690 nM | IC50 [6]: 2970 nM

CNC(=O)C1(C)CCN(c2ccc(C(F)(F)F)cc2NC(=O)c2ccc(C3CCOCC3)o2)CC1 [Example 76, N,4-dimethyl-1-(2-(5-(tetrahydro-2H-pyran-4-yl)furan-2-carboxamido)-4-(trifluoromethyl)-phenyl)piperidine-4-carboxamide]
IC50 [1]: > 30000 nM | IC50 [2]: 3.2 nM | IC50 [3]: 8.68 µM | IC50 [4]: 750 nM | IC50 [5]: 4250 nM | IC50 [6]: 1700 nM

O=C(Nc1cc(C(F)(F)F)ccc1N1CCC(O)C1)c1ccc(C2CCOCC2)o1 (racemic) [Example 57, N-(2-(3-hydroxypyrrolidin-1-yl)-5-(trifluoromethyl)-phenyl)-5-(tetrahydro-2H-pyran-4-yl)furan-2-carboxamide]
IC50 [1]: 9160 nM | IC50 [2]: 75 nM | IC50 [3]: 11.5 µM | IC50 [4]: > 30000 nM | IC50 [5]: 14500 nM | IC50 [6]: 5550 nM

CC1(O)CCN(c2ccc(Cl)cc2NC(=O)c2ccc(-c3ccncc3)o2)CC1 [Example 5, N-(5-chloro-2-(4-hydroxy-4-methylpiperidin-1-yl)phenyl)-5-(pyridin-4-yl)furan-2-carboxamide]
IC50 [1]: 8130 nM | IC50 [2]: 0.5 nM | IC50 [3]: 5.13 µM | IC50 [4]: 670 nM | IC50 [5]: 2180 nM | IC50 [6]: 660 nM

O=C(Nc1cc(C(F)(F)F)ccc1N1CCCC(O)CC1)c1ccc(-c2ccncc2)o1 (racemic) [Example 44, N-(2-(4-hydroxyazepan-1-yl)-5-(trifluoromethyl)-phenyl)-5-(pyridin-4-yl)furan-2-carboxamide]
IC50 [1]: 24300 nM | IC50 [2]: 1.5 nM | IC50 [3]: 25.3 µM | IC50 [4]: 26300 nM | IC50 [5]: 8570 nM | IC50 [6]: 11200 nM

— patent US11420969B2 (Exonate Limited, priority 2017, dated 2022)
